According to US20230303483A1, “USE OF STROBILURIN TYPE COMPOUNDS FOR COMBATING PHYTOPATHOGENIC FUNGI CONTAINING AN AMINO ACID SUBSTITUTION F129L IN THE MITOCHONDRIAL CYTOCHROME B PROTEIN CONFERRING RESISTANCE TO QO […]” (BASF SE, priority 2020, published 2023):

Experiments:
[1] = tested on: Phakopsora pachyrhizi (strain containing the amino acid substitution F129L in the mitochondrial cytochrome b protein); experiment: Use example 2: protective control of soybean rust on soybeans (PHAKPA P6), inoculation six days after spraying; format: in vivo; settings: % diseased leaf area on soybean, 16 ppm spray, inoculation six days after treatment, untreated controls usually >85 %
Protocol: (§1) The compound was dissolved in a mixture of acetone and/or dimethylsulfoxide and the wetting agent/emulsifier Wettol, which is based on ethoxylated alkylphenoles, in a ratio (volume) solvent-emulsifier of 99 to 1 to give a total volume of 5 ml. Subsequently, water was added to total volume of 100 ml. This stock solution was then diluted with the described solvent-emulsifier-water mixture to the final concentration given in the table below.
Use example 2. Protective control of soybean rust on soybeans caused by Phakopsora pachyrhizi (PHAKPA P6)
(§2) Leaves of potted soybean seedlings were sprayed to run-off with the previously described spray solution, containing the concentration of active ingredient as described below. The plants were allowed to air-dry. The trial plants were cultivated for six days in a greenhouse chamber at 23-27° C. and a relative humidity between 60 and 80 %. Then the plants were inoculated with spores of Phakopsora pachyrhizi. The strain used contains the amino acid substitution F129L in the mitochondrial cytochrome b protein conferring resistance to Qo inhibitors. To ensure the success the artificial inoculation, the plants were transferred to a humid chamber with a relative humidity of about 95 % and 23 to 27° C. for 24 hr. The trial plants were cultivated for up to 14 days in a greenhouse chamber at 23 to 27° C. and a relative humidity between 60 and 80 %. The extent of fungal attack on the leaves was visually assessed as % diseased leaf area, the disease level of untreated controls was usually higher than 85 %.
(§3) All test results below are given for the control of phytopathogenic fungi containing the amino acid substitution F129L in the mitochondrial cytochrome b protein conferring resistance to Qo inhibitors.

[2] = tested on: Phakopsora pachyrhizi (strain containing the amino acid substitution F129L in the mitochondrial cytochrome b protein); experiment: Use example 1: protective control of soybean rust on soybeans (PHAKPA P2), inoculation 2 days after spraying; format: in vivo; settings: % diseased leaf area on soybean, 16 ppm spray, inoculation 2 days after treatment, untreated controls usually >85 %
Protocol: as §1
Use example 1. Protective control of soybean rust on soybeans caused by Phakopsora pachyrhizi (PHAKPA P2)
as §2, with “active ingredient or their mixture as described” for “active ingredient as described”, “cultivated for 2 days in” for “cultivated for six days in”, “% and 20 to 24°” for “% and 23 to 27°”, “20 to 24° C. for” for “23 to 27° C. for”
as §3

CNC(=O)/C(=N/OC)c1ccccc1CO/N=C(\C)C#Cc1ccccc1 [Example 2, (2E)-2-Methoxyimino-N-methyl-2-[2-[[(E)-(1-methyl-3-phenyl-prop-2-ynylidene)-amino]oxymethyl]phenyl]acetamide]
PHAKPA Disease level (%) P6 at 16 ppm [1]: 90% | PHAKPA Disease level (%) P2 at 16 ppm [2]: 97%

CO/N=C(/C(=O)OC)c1cccc(C)c1CO/N=C(\C)C#Cc1cccc(OC(F)(F)F)c1 [Example 28]
PHAKPA Disease level (%) P6 at 16 ppm [1]: 0% | PHAKPA Disease level (%) P2 at 16 ppm [2]: 0%

CNC(=O)/C(=N/OC)c1ccccc1CO/N=C(\C)C#Cc1ccc(Cl)cc1-c1ccc(F)cc1 [Example 115]
PHAKPA Disease level (%) P6 at 16 ppm [1]: 1% | PHAKPA Disease level (%) P2 at 16 ppm [2]: 2%

CO/N=C(/C(=O)OC)c1ccccc1CO/N=C(\C)C#Cc1cccc(F)c1 [Example 35]
PHAKPA Disease level (%) P6 at 16 ppm [1]: 25% | PHAKPA Disease level (%) P2 at 16 ppm [2]: 32%

CO/N=C(/C(=O)OC)c1cccc(C)c1CO/N=C(\C)C#Cc1ccc(F)cc1C(=O)OC [Example 125]
PHAKPA Disease level (%) P6 at 16 ppm [1]: 45% | PHAKPA Disease level (%) P2 at 16 ppm [2]: 17%

CNC(=O)/C(=N/OC)c1ccccc1CO/N=C(\C)C#Cc1cccc(C(F)(F)F)c1 [Example 44]
PHAKPA Disease level (%) P6 at 16 ppm [1]: 5% | PHAKPA Disease level (%) P2 at 16 ppm [2]: 1%

CO/N=C(/C(=O)OC)c1cccc(C)c1CO/N=C(\C)C#Cc1cccc(C(F)(F)F)c1 [Example 39]
PHAKPA Disease level (%) P6 at 16 ppm [1]: 1% | PHAKPA Disease level (%) P2 at 16 ppm [2]: 2%

CNC(=O)/C(=N/OC)c1ccccc1CO/N=C(\C)C#Cc1c(C2CC2)cccc1C(F)(F)F [Example 119]
PHAKPA Disease level (%) P6 at 16 ppm [1]: 77% | PHAKPA Disease level (%) P2 at 16 ppm [2]: 77%

CO/N=C(/C(=O)OC)c1cccc(C)c1CO/N=C(\C)C#Cc1ccc(F)cc1C(=O)OC [Example 127]
PHAKPA Disease level (%) P6 at 16 ppm [1]: 47% | PHAKPA Disease level (%) P2 at 16 ppm [2]: 53%

COC/C(C#Cc1ccc(Cl)cc1)=N\OCc1ccccc1/C(=N\OC)C(=O)OC [Example 113]
PHAKPA Disease level (%) P6 at 16 ppm [1]: 77% | PHAKPA Disease level (%) P2 at 16 ppm [2]: 87%

CO/N=C(/C(=O)OC)c1ccccc1CO/N=C(\C)C#Cc1ccc(F)cc1 [Example 7]
PHAKPA Disease level (%) P6 at 16 ppm [1]: 50% | PHAKPA Disease level (%) P2 at 16 ppm [2]: 30%

CO/N=C(/C(=O)OC)c1ccccc1CO/N=C(\C)C#Cc1c(C2CC2)cccc1C(F)(F)F [Example 108]
PHAKPA Disease level (%) P6 at 16 ppm [1]: 87% | PHAKPA Disease level (%) P2 at 16 ppm [2]: 90%

CO/N=C(/C(=O)OC)c1cccc(C)c1CO/N=C(\C)C#Cc1ccccc1Br [Example 45]
PHAKPA Disease level (%) P6 at 16 ppm [1]: 22% | PHAKPA Disease level (%) P2 at 16 ppm [2]: 25%

CNC(=O)/C(=N/OC)c1cccc(C)c1CO/N=C(\C)C#Cc1cccc(C(F)(F)F)c1 [Example 40]
PHAKPA Disease level (%) P6 at 16 ppm [1]: 0% | PHAKPA Disease level (%) P2 at 16 ppm [2]: 0%

CNC(=O)/C(=N/OC)c1ccccc1CO/N=C(\C)C#Cc1ccc(OC(F)(F)F)cc1 [Example 11, (2E)-2-Methoxyimino-N-methyl-2-[2-[[(E)-[1-methyl-3-[4-(trifluoromethoxy)phenyl]-prop-2-ynylidene]amino]oxymethyl]phenyl]acetamide]
PHAKPA Disease level (%) P6 at 16 ppm [1]: 67% | PHAKPA Disease level (%) P2 at 16 ppm [2]: 53%

CO/N=C(/C(=O)OC)c1cccc(C)c1CO/N=C(\C)C#Cc1ccccc1C(F)(F)F [Example 66]
PHAKPA Disease level (%) P6 at 16 ppm [1]: 30% | PHAKPA Disease level (%) P2 at 16 ppm [2]: 17%

CO/N=C(/C(=O)OC)c1ccccc1CO/N=C(\C)C#Cc1cccc(Cl)c1 [Example 71]
PHAKPA Disease level (%) P6 at 16 ppm [1]: 17% | PHAKPA Disease level (%) P2 at 16 ppm [2]: 20%

CO/N=C(/C(=O)OC)c1ccccc1CO/N=C(\C)C#Cc1cccc(C(F)(F)F)c1 [Example 41]
PHAKPA Disease level (%) P6 at 16 ppm [1]: 67% | PHAKPA Disease level (%) P2 at 16 ppm [2]: 50%

CNC(=O)/C(=N/OC)c1ccccc1CO/N=C(\C)C#Cc1ccc(Br)cc1 [Example 55]
PHAKPA Disease level (%) P6 at 16 ppm [1]: 40% | PHAKPA Disease level (%) P2 at 16 ppm [2]: 23%

CNC(=O)/C(=N/OC)c1cccc(C)c1CO/N=C(\C)C#Cc1ccccc1C [Example 49]
PHAKPA Disease level (%) P6 at 16 ppm [1]: 0% | PHAKPA Disease level (%) P2 at 16 ppm [2]: 0%

CNC(=O)/C(=N/OC)c1cccc(C)c1CO/N=C(\C)C#Cc1ccccc1OC(F)(F)F [Example 25]
PHAKPA Disease level (%) P6 at 16 ppm [1]: 0% | PHAKPA Disease level (%) P2 at 16 ppm [2]: 0%

CNC(=O)/C(=N/OC)c1cccc(C)c1CO/N=C(\C)C#Cc1ccccc1Cl [Example 78]
PHAKPA Disease level (%) P6 at 16 ppm [1]: 0% | PHAKPA Disease level (%) P2 at 16 ppm [2]: 0%

CO/N=C(/C(=O)OC)c1cccc(C)c1CO/N=C(\C)C#Cc1ccccc1C [Example 23]
PHAKPA Disease level (%) P6 at 16 ppm [1]: 0% | PHAKPA Disease level (%) P2 at 16 ppm [2]: 0%

CO/N=C(/C(=O)OC)c1ccccc1CO/N=C(\C)C#Cc1ccccc1C(F)(F)F [Example 67]
PHAKPA Disease level (%) P6 at 16 ppm [1]: 60% | PHAKPA Disease level (%) P2 at 16 ppm [2]: 50%

CNC(=O)/C(=N/OC)c1cccc(C)c1CO/N=C(\C)C#Cc1cccc(Br)c1 [Example 29]
PHAKPA Disease level (%) P6 at 16 ppm [1]: 0% | PHAKPA Disease level (%) P2 at 16 ppm [2]: 1%

CNC(=O)/C(=N/OC)c1cccc(C)c1CO/N=C(\C)C#Cc1ccc(F)cc1 [Example 33]
PHAKPA Disease level (%) P6 at 16 ppm [1]: 0% | PHAKPA Disease level (%) P2 at 16 ppm [2]: 0%

CNC(=O)/C(=N/OC)c1ccccc1CO/N=C(\C)C#Cc1ccccc1Cl [Example 76]
PHAKPA Disease level (%) P6 at 16 ppm [1]: 4% | PHAKPA Disease level (%) P2 at 16 ppm [2]: 3%

CO/N=C(/C(=O)OC)c1ccccc1CO/N=C(\C)C#Cc1cccc2c1OC(F)(F)O2 [Example 103]
PHAKPA Disease level (%) P6 at 16 ppm [1]: 22% | PHAKPA Disease level (%) P2 at 16 ppm [2]: 28%

CO/N=C(/C(=O)OC)c1cccc(C)c1CO/N=C(\C)C#Cc1ccc(C)cc1 [Example 20]
PHAKPA Disease level (%) P6 at 16 ppm [1]: 1% | PHAKPA Disease level (%) P2 at 16 ppm [2]: 2%

CNC(=O)/C(=N/OC)c1ccccc1CO/N=C(\C)C#Cc1cccc(Cl)c1 [Example 73]
PHAKPA Disease level (%) P6 at 16 ppm [1]: 0% | PHAKPA Disease level (%) P2 at 16 ppm [2]: 1%

CO/N=C(/C(=O)OC)c1ccccc1CO/N=C(\C)C#Cc1ccc(OC(F)(F)F)cc1 [Example 12, methyl(2E)-2-methoxyimino-2-[2-[[(E)-[1-methyl-3-[4-(trifluoromethoxy)phenyl]prop-2-ynylidene]amino]oxymethyl]phenyl]acetate]
PHAKPA Disease level (%) P6 at 16 ppm [1]: 100% | PHAKPA Disease level (%) P2 at 16 ppm [2]: 93%

CO/N=C(/C(=O)OC)c1ccccc1CO/N=C(\C)C#Cc1ccc(Cl)cc1C(C)C [Example 109]
PHAKPA Disease level (%) P6 at 16 ppm [1]: 12% | PHAKPA Disease level (%) P2 at 16 ppm [2]: 11%

CNC(=O)/C(=N/OC)c1ccccc1CO/N=C(\C)C#Cc1ccc(Cl)cc1C1CC1 [Example 86]
PHAKPA Disease level (%) P6 at 16 ppm [1]: 18% | PHAKPA Disease level (%) P2 at 16 ppm [2]: 5%

CNC(=O)/C(=N/OC)c1ccccc1CO/N=C(\C)C#Cc1ccc(OC(C)C)cc1 [Example 88]
PHAKPA Disease level (%) P6 at 16 ppm [1]: 60% | PHAKPA Disease level (%) P2 at 16 ppm [2]: 77%

CNC(=O)/C(=N/OC)c1cccc(C)c1CO/N=C(\C)C#Cc1ccccc1 [Example 16, (2E)-2-Methoxyimino-N-methyl-2-[3-methyl-2-[[(E)-(1-methyl-3-phenyl-prop-2-ynylidene)amino]oxymethyl]phenyl]acetamide]
PHAKPA Disease level (%) P6 at 16 ppm [1]: 0% | PHAKPA Disease level (%) P2 at 16 ppm [2]: 0%

CNC(=O)/C(=N/OC)c1ccccc1CO/N=C(\C)C#Cc1cccc(F)c1 [Example 37]
PHAKPA Disease level (%) P6 at 16 ppm [1]: 8% | PHAKPA Disease level (%) P2 at 16 ppm [2]: 6%
